According to the supplement of paper PMC7285287:
Where a name gives a salt, the structure may show the parent alone. ± gives the standard deviation of the averaged measurements.

System: Candida albicans SNY425 biofilm
Test: biofilm OD600 relative to DMSO control (fraction of DMSO control); higher = more biofilm (less inhibition)
Method: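 C. albicans SNY425 biofilm optical density assays (OD600 of the adhered biofilm after media removal) in RPMI-MOPS pH 7.0 at 37 °C with shaking. Groups of 4 to 8 wells per compound are averaged and normalised to the average of DMSO loading control wells. Adherence inhibition was tested at 10 and 40 µM, sustained inhibition and disruption at 40 µM, and the MBIC series at 200 to 0.78 µM.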

[1] = 10 µM, assay detail: adherence inhibition, 96-well, compound during 90 min adherence only
[2] = 40 µM, assay detail: adherence inhibition, 96-well, compound during 90 min adherence only
[3] = 40 µM, assay detail: disruption, 384-well, compound added to 24 h mature biofilm for further 24 h
[4] = 40 µM, assay detail: sustained inhibition, 384-well, compound during adherence and 24 h growth
[5] = 0.78 µM, assay detail: sustained inhibition (MBIC series), 384-well, compound during adherence and 24 h growth
[6] = 3.125 µM, assay detail: sustained inhibition (MBIC series), 384-well, compound during adherence and 24 h growth
[7] = 12.5 µM, assay detail: sustained inhibition (MBIC series), 384-well, compound during adherence and 24 h growth
[8] = 50 µM, assay detail: sustained inhibition (MBIC series), 384-well, compound during adherence and 24 h growth
[9] = 200 µM, assay detail: sustained inhibition (MBIC series), 384-well, compound during adherence and 24 h growth

SMILES | biofilm OD600 [1] | biofilm OD600 [2] | biofilm OD600 [3] | biofilm OD600 [4] | biofilm OD600 [5] | biofilm OD600 [6] | biofilm OD600 [7] | biofilm OD600 [8] | biofilm OD600 [9]
C=CC1=C(C)c2cc3[nH]c(cc4nc(cc5[nH]c(cc1n2)c(C)c5CCC(=O)O)C(CCC(=O)O)=C4C)c(C)c3C=C [protoporphyrin ix] | 1.04 | 0.941 | 1.21 ± 0.082 | 1.65 ± 0.22 | – | – | – | – | –
CCOC(=O)[C@H](CCc1ccccc1)N[C@@H](C)C(=O)N1Cc2ccccc2C[C@H]1C(=O)O [quinapril hydrochloride] | 1.07 | 0.946 | 1 ± 0.022 | 1.01 ± 0.033 | – | – | – | – | –
COCCCOc1ccnc(C[S+]([O-])c2nc3ccccc3[nH]2)c1C (configuration not stated) [rabeprazole sodium] | 1.06 | 0.914 | 0.936 ± 0.049 | 1 ± 0.022 | 0.998 | 1.1 | 1.08 | 1.01 | 0.747
CC(C)N1CCN(c2ccc(OCC3COC(Cn4cncn4)(c4ccc(Cl)cc4Cl)O3)cc2)CC1 (configuration not stated) [terconazole] | 0.387 | 0.269 | 0.9787 ± 0.008 | 0.55 ± 0.032 | 0.77 | 0.76 | 0.728 | 0.568 | 0.403
Clc1ccc(C(Cn2ccnc2)OCc2ccsc2Cl)c(Cl)c1 (configuration not stated) [tioconazole] | 0.341 | 0.284 | 0.8317 ± 0.0059 | 0.473 ± 0.032 | 0.768 | 0.714 | 0.675 | 0.491 | 0.312
C[C@]12C=CC(=O)C=C1CC[C@H]1[C@@H]3C[C@@H](O)[C@](O)(C(=O)CO)[C@@]3(C)C[C@H](O)[C@@]12F [triamcinolone] | 1 | 0.879 | 1.03 ± 0.034 | 1 ± 0.014 | – | – | – | – | –
CC(C)[C@H](N)C(=O)OCCOCn1cnc2c(=O)nc(N)[nH]c21 [valacyclovir hydrochloride] | 1.1 | 0.844 | 1 ± 0.024 | 0.982 ± 0.047 | – | – | – | – | –
Cc1ccc(-c2nc3ccc(C)cn3c2CC(=O)N(C)C)cc1 [zolpidem] | 0.924 | 0.858 | 1.005 ± 0.0066 | 0.981 ± 0.055 | – | – | – | – | –
